Results from ChEMBL document CHEMBL5608208, “Design, synthesis of griseofamine A derivatives and development of potent antibacterial agents against MRSA” (Eur J Med Chem, 2024).
Converted amounts (≈) assume the structure as drawn.

Key:
Format in all cases: functional
Staphylococcus aureus [1] = experiment: Antibacterial activity against Staphylococcus aureus ATCC 29213 incubated for 18 hrs by serial two-fold dilution method
[2] = system: Staphylococcus epidermidis; experiment: Antibacterial activity against Staphylococcus epidermidis ATCC 12228 incubated for 18 hrs by serial two-fold dilution method
Staphylococcus aureus [3] = experiment: Antibacterial activity against methicillin resistant Staphylococcus aureus ATCC 33592 incubated for 18 hrs by serial two-fold dilution method
Staphylococcus aureus [4] = experiment: Antibacterial activity against methicillin resistant Staphylococcus aureus ATCC 43300 incubated for 18 hrs by serial two-fold dilution method

COC(=O)[C@@H]1Cc2c([nH]c3ccccc23)[C@@H](C)N1
MIC (Staphylococcus aureus [1]): > 128 µg/mL

O=C1CC(=O)N2[C@H](c3ccc(-c4cc(F)cc(F)c4)cc3)c3[nH]c4ccccc4c3C[C@@H]12
MIC (Staphylococcus aureus [1]): > 4 µg/mL
MIC [2]: > 4 µg/mL
MIC (Staphylococcus aureus [3]): 4 µg/mL (≈ 9.34 µM)

C/C(O)=C1\C(=O)[C@@H]2Cc3c([nH]c4ccccc34)[C@@H](c3ccc(-c4cccc(C(F)(F)F)c4)cc3)N2C1=O
MIC (Staphylococcus aureus [1]): 0.5 µg/mL (≈ 0.995 µM)
MIC [2]: 0.063 µg/mL (≈ 0.125 µM)
MIC (Staphylococcus aureus [3]): 0.5 µg/mL (≈ 0.995 µM)

COc1ccc([C@H]2c3[nH]c4ccccc4c3C[C@H]3C(=O)/C(=C(\C)O)C(=O)N23)cc1
MIC (Staphylococcus aureus [1]): 8 µg/mL (≈ 20.6 µM)

C/C(O)=C1\C(=O)[C@@H]2Cc3c([nH]c4ccccc34)[C@H](c3ccc(C(F)(F)F)cc3)N2C1=O
MIC (Staphylococcus aureus [1]): 16 µg/mL (≈ 37.5 µM)

COc1ccc([C@@H]2c3[nH]c4ccccc4c3C[C@H]3C(=O)/C(=C(\C)O)C(=O)N23)cc1
MIC (Staphylococcus aureus [1]): 4 µg/mL (≈ 10.3 µM)

O=C1CC(=O)N2[C@H](c3ccc(-c4ccc(OC(F)(F)F)cc4)cc3)c3[nH]c4ccccc4c3C[C@@H]12
MIC (Staphylococcus aureus [1]): > 4 µg/mL
MIC [2]: > 4 µg/mL
MIC (Staphylococcus aureus [3]): > 4 µg/mL

C/C(O)=C1\C(=O)[C@@H]2Cc3c([nH]c4ccccc34)[C@@H](c3ccc(-c4ccc(F)cc4F)cc3)N2C1=O
MIC (Staphylococcus aureus [1]): 0.125 µg/mL (≈ 0.266 µM)
MIC [2]: 0.25 µg/mL (≈ 0.531 µM)
MIC (Staphylococcus aureus [3]): 0.25 µg/mL (≈ 0.531 µM)
MIC (Staphylococcus aureus [4]): 0.125 µg/mL (≈ 0.266 µM)

C/C(O)=C1\C(=O)[C@@H]2Cc3c(n(S(=O)(=O)c4ccc(C)cc4)c4ccccc34)[C@@H](c3ccc(-c4ccc(C)cc4)cc3)N2C1=O
MIC (Staphylococcus aureus [1]): 8 µg/mL (≈ 13.3 µM)
MIC [2]: 2 µg/mL (≈ 3.32 µM)
MIC (Staphylococcus aureus [3]): 8 µg/mL (≈ 13.3 µM)

CCn1c2c(c3ccccc31)C[C@H]1C(=O)/C(=C(\C)O)C(=O)N1[C@@H]2c1ccc(-c2ccc(F)cc2)cc1
MIC (Staphylococcus aureus [1]): 0.25 µg/mL (≈ 0.52 µM)
MIC [2]: 0.25 µg/mL (≈ 0.52 µM)
MIC (Staphylococcus aureus [3]): 0.25 µg/mL (≈ 0.52 µM)
MIC (Staphylococcus aureus [4]): 0.125 µg/mL (≈ 0.26 µM)

C/C(O)=C1\C(=O)[C@@H]2Cc3c([nH]c4ccccc34)[C@@H](c3ccc(F)cc3F)N2C1=O
MIC (Staphylococcus aureus [1]): 8 µg/mL (≈ 20.3 µM)

O=C1/C(=C(/O)c2cccs2)C(=O)N2[C@H](c3ccc(-c4cc(F)cc(F)c4)cc3)c3[nH]c4ccccc4c3C[C@@H]12
MIC (Staphylococcus aureus [1]): 0.25 µg/mL (≈ 0.464 µM)
MIC [2]: 0.25 µg/mL (≈ 0.464 µM)
MIC (Staphylococcus aureus [3]): 0.25 µg/mL (≈ 0.464 µM)
MIC (Staphylococcus aureus [4]): 0.125 µg/mL (≈ 0.232 µM)

O=C1CC(=O)N2[C@H](c3ccc(-c4ccc(F)cc4)cc3)c3[nH]c4ccccc4c3C[C@@H]12
MIC (Staphylococcus aureus [1]): > 4 µg/mL
MIC [2]: > 4 µg/mL
MIC (Staphylococcus aureus [3]): > 4 µg/mL

C/C(O)=C1\C(=O)[C@@H]2Cc3c([nH]c4ccccc34)[C@@H](c3ccc(-c4cccc(F)c4)cc3)N2C1=O
MIC (Staphylococcus aureus [1]): 0.125 µg/mL (≈ 0.276 µM)
MIC [2]: 0.25 µg/mL (≈ 0.553 µM)
MIC (Staphylococcus aureus [3]): 0.25 µg/mL (≈ 0.553 µM)

CC/C(O)=C1\C(=O)[C@@H]2Cc3c([nH]c4ccccc34)[C@@H](c3ccc(-c4cc(F)cc(F)c4)cc3)N2C1=O
MIC (Staphylococcus aureus [1]): 0.063 µg/mL (≈ 0.13 µM)
MIC [2]: 0.125 µg/mL (≈ 0.258 µM)
MIC (Staphylococcus aureus [3]): 0.063 µg/mL (≈ 0.13 µM)
MIC (Staphylococcus aureus [4]): 0.063 µg/mL (≈ 0.13 µM)

C/C(O)=C1\C(=O)[C@@H]2Cc3c([nH]c4ccccc34)[C@@H](c3ccc(-c4ccccc4F)cc3)N2C1=O
MIC (Staphylococcus aureus [1]): 0.125 µg/mL (≈ 0.276 µM)
MIC [2]: 0.25 µg/mL (≈ 0.553 µM)
MIC (Staphylococcus aureus [3]): 0.25 µg/mL (≈ 0.553 µM)
MIC (Staphylococcus aureus [4]): 0.25 µg/mL (≈ 0.553 µM)

C/C(O)=C1\C(=O)[C@@H]2Cc3c([nH]c4ccccc34)[C@@H](c3ccccc3)N2C1=O
MIC (Staphylococcus aureus [1]): 8 µg/mL (≈ 22.3 µM)

C/C(O)=C1\C(=O)[C@@H]2Cc3c([nH]c4ccccc34)[C@@H](C)N2C1=O
MIC (Staphylococcus aureus [1]): > 128 µg/mL

C/C(O)=C1\C(=O)[C@@H]2Cc3c([nH]c4ccccc34)[C@@H](c3ccc(-c4ccc(C(F)(F)F)cc4)o3)N2C1=O
MIC (Staphylococcus aureus [1]): 0.25 µg/mL (≈ 0.508 µM)
MIC [2]: 0.25 µg/mL (≈ 0.508 µM)
MIC (Staphylococcus aureus [3]): 0.25 µg/mL (≈ 0.508 µM)
MIC (Staphylococcus aureus [4]): 0.25 µg/mL (≈ 0.508 µM)

O=C(OC1=CC(=O)N2[C@H](c3ccc(-c4cc(F)cc(F)c4)cc3)c3[nH]c4ccccc4c3C[C@@H]12)c1ccc(F)cc1
MIC (Staphylococcus aureus [1]): > 4 µg/mL
MIC [2]: > 4 µg/mL
MIC (Staphylococcus aureus [3]): > 4 µg/mL

C/C(O)=C1\C(=O)[C@@H]2Cc3c([nH]c4ccccc34)[C@@H](c3ccc(C(C)(C)C)cc3)N2C1=O
MIC (Staphylococcus aureus [1]): 4 µg/mL (≈ 9.65 µM)

Cc1ccc(C(=O)OC2=CC(=O)N3[C@H](c4ccc(-c5cc(F)cc(F)c5)cc4)c4[nH]c5ccccc5c4C[C@@H]23)cc1
MIC (Staphylococcus aureus [1]): > 4 µg/mL
MIC [2]: > 4 µg/mL
MIC (Staphylococcus aureus [3]): > 4 µg/mL

C/C(O)=C1\C(=O)[C@@H]2Cc3c(n(C)c4ccccc34)[C@@H](c3ccc(-c4ccc(F)cc4)cc3)N2C1=O
MIC (Staphylococcus aureus [1]): 0.25 µg/mL (≈ 0.536 µM)
MIC [2]: 0.063 µg/mL (≈ 0.135 µM)
MIC (Staphylococcus aureus [3]): 0.5 µg/mL (≈ 1.07 µM)

C/C(O)=C1\C(=O)[C@@H]2Cc3c([nH]c4ccccc34)[C@@H](c3cccc(F)c3)N2C1=O
MIC (Staphylococcus aureus [1]): 8 µg/mL (≈ 21.3 µM)

C/C(N)=C1\C(=O)[C@@H]2Cc3c([nH]c4ccccc34)[C@@H](c3ccc(-c4ccc(OC(F)(F)F)cc4)cc3)N2C1=O
MIC (Staphylococcus aureus [1]): 4 µg/mL (≈ 7.73 µM)
MIC [2]: 4 µg/mL (≈ 7.73 µM)
MIC (Staphylococcus aureus [3]): 4 µg/mL (≈ 7.73 µM)

CCc1ccc(-c2ccc([C@@H]3c4[nH]c5ccccc5c4C[C@H]4C(=O)/C(=C(\C)O)C(=O)N34)cc2)cc1
MIC (Staphylococcus aureus [1]): 0.5 µg/mL (≈ 1.08 µM)
MIC [2]: 0.25 µg/mL (≈ 0.54 µM)
MIC (Staphylococcus aureus [3]): 0.25 µg/mL (≈ 0.54 µM)
MIC (Staphylococcus aureus [4]): 0.25 µg/mL (≈ 0.54 µM)

C/C(N)=C1\C(=O)[C@@H]2Cc3c([nH]c4ccccc34)[C@@H](c3ccc(-c4ccccc4)cc3)N2C1=O
MIC (Staphylococcus aureus [1]): > 4 µg/mL
MIC [2]: > 4 µg/mL
MIC (Staphylococcus aureus [3]): > 4 µg/mL

C/C(O)=C1\C(=O)[C@@H]2Cc3c([nH]c4ccccc34)CN2C1=O
MIC (Staphylococcus aureus [1]): 128 µg/mL (≈ 453 µM)
